From patent US20230233569A1 (Revolution Medicines, Inc., priority 2020, published 2023)
Several values for one entry are separate records, joined by “and”; a condition that tells them apart may be missing. Identical values can stand only once. Like-named read-outs stand apart in the source and are kept apart here.

Key:
NCI-H358 (K-Ras G12C) = test: CellTiter-Glo cell viability assay, 5-day treatment; assay type: cell-based; settings: Homo sapiens
Procedure: (§1) Protocol: CellTiter-Glo® Cell Viability Assay
(§2) Note—The following protocol describes a procedure for monitoring cell viability of K-Ras mutant cancer cell lines in response to a compound of the invention. Other RAS isoforms may be employed, though the number of cells to be seeded will vary based on cell line used.
(§3) Test compounds (132.5 nL) were directly dispensed into the assay plates containing cells. […] On day 5, assay plates and their contents were equilibrated to room temperature for approximately 30 minutes. […] Luminescence was measured using the PerkinElmer Enspire. Data were normalized by the following: (Sample signal/Avg. DMSO)*100. The data were fit using a four-parameter logistic fit.
as §3, with “nl)” for “nL)”

KRAS G12C = KRAS G12C (Homo sapiens, UniProt P01116+P62937, G12C); test: Disruption of BRAF RBD interaction with Ras (FRET / MOA assay, with Cyclophilin A); assay type: biochemical
Text: (§4) This protocol may also be executed substituting other Ras proteins or nucleotides.
(§5) The purpose of this biochemical assay was to measure the ability of test compounds to facilitate ternary complex formation between a nucleotide-loaded K-Ras isoform and Cyclophilin A; the resulting ternary complex disrupts binding to a BRAF^RBD construct, inhibiting K-Ras signaling through a RAF effector. Data is reported as IC50 values.
(§6) Compound was present in plate wells as a 10-point 3-fold dilution series starting at a final concentration of 30 μM. After incubation at 25° C. for 3 hours, a mixture of Anti-His Eu-W1024 and anti-GST allophycocyanin was then added to assay sample wells at final concentrations of 10 nM and 50 nM, respectively, and the reaction incubated for an additional 1.5 hours. […] Compounds that facilitate disruption of a K-Ras:RAF complex were identified as those eliciting a decrease in the TR-FRET ratio relative to DMSO control wells.
as §5, with “BRAF^RBDD” for “BRAF^RBD”

KRAS G12D = KRAS G12D (Homo sapiens, UniProt P01116+P62937, G12D); test: as above; assay type: biochemical; settings: read-out: KRAS G12D FRET data, IC50
Text: as §4, §5, §6
as §5, with “BRAF^RBDD” for “BRAF^RBD”

KRAS G12S = KRAS G12S (Homo sapiens, UniProt P01116+P62937, G12S); test: as above; assay type: biochemical; settings: read-out: KRAS G12S FRET data, IC50
Text: as §4, §5, §6
as §5, with “BRAF^RBDD” for “BRAF^RBD”

KRAS G12V = KRAS G12V (Homo sapiens, UniProt P01116+P62937, G12V); test: as above; assay type: biochemical; settings: KRAS G12V; read-out: KRAS G12V FRET data IC50
Text: as §4, §5, §6
as §5, with “BRAF^RBDD” for “BRAF^RBD”

KRAS G13C = KRAS G13C (Homo sapiens, UniProt P01116+P62937, G13C); test: as above; assay type: biochemical
Text: as §4, §5, §6
as §5, with “BRAF^RBDD” for “BRAF^RBD”

KRAS G13D = KRAS G13D (Homo sapiens, UniProt P01116+P62937, G13D); test: as above; assay type: biochemical; settings: KRAS G13D; read-out: KRAS G13D FRET data IC50
Text: as §4, §5, §6
as §5, with “BRAF^RBDD” for “BRAF^RBD”

KRAS WT = KRAS WT (Homo sapiens, UniProt P01116+P62937); test: as above; assay type: biochemical; settings: KRAS WT; read-out: KRAS WT FRET data IC50
Text: as §4, §5, §6
as §5, with “BRAF^RBDD” for “BRAF^RBD”

NRAS G12C = NRAS G12C (Homo sapiens, UniProt P01111+P62937, G12C); test: as above; assay type: biochemical; settings: NRAS G12C; read-out: NRAS G12C FRET data IC50
Text: as §4, §5, §6
as §5, with “BRAF^RBDD” for “BRAF^RBD”

Capan-1 (K-Ras G12V) = test: CellTiter-Glo cell viability assay, 5-day treatment; assay type: cell-based; settings: Homo sapiens, CAPAN-1, 120 h, 5-day treatment; read-out: Capan-1 Cell Viability assay data (K-Ras G12V, IC50)
Procedure: as §1, §2, §3
as §3, with “nl)” for “nL)”

[1] = NCI-H358, 120 h, 5-day treatment, read-out: H358 Cell Viability assay data (K-Ras G12C, IC50)
[2] = read-out: KRAS G12C FRET data, IC50
[3] = read-out: KRAS G13C FRET data, IC50
[4] = NCI-H358, H358, K-Ras G12C, read-out: Additional H358 Cell Viability assay data (K-Ras G12C, IC50)
[5] = KRAS G12C, read-out: KRAS G12C FRET data IC50
[6] = KRAS G13C, read-out: KRAS G13C FRET data IC50

Sequence of KRAS G12C (P01116 1-169 isoform P01116-2 G12C): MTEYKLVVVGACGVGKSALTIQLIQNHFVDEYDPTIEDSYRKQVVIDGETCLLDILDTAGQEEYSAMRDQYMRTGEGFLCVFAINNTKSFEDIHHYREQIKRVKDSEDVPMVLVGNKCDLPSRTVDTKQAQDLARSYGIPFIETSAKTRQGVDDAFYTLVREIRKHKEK
Sequence of KRAS G12C (P62937 whole entry): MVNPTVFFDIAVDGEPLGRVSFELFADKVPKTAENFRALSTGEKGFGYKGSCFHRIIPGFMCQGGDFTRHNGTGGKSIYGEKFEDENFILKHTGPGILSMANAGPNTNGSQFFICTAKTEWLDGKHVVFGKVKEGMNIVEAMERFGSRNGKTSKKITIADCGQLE
Sequence of KRAS G12S (P01116 1-169 isoform P01116-2 G12S limits assumed): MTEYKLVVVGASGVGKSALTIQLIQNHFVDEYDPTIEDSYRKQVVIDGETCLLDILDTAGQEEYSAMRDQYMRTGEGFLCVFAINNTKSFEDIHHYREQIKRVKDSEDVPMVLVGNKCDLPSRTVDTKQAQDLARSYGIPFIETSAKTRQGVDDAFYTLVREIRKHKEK
Sequence of KRAS G12S (P62937 whole entry): as the sequence (P62937 whole entry) above
Sequence of NRAS G12C (P01111 whole entry G12C): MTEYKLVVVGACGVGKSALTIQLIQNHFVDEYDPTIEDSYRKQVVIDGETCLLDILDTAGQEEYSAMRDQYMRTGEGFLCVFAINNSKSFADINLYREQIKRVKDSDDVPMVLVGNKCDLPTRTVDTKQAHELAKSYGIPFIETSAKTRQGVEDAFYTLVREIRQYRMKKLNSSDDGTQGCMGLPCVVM
Sequence of NRAS G12C (P62937 whole entry): as the sequence (P62937 whole entry) above
Sequence of KRAS WT (P01116 1-169 isoform P01116-2 limits assumed): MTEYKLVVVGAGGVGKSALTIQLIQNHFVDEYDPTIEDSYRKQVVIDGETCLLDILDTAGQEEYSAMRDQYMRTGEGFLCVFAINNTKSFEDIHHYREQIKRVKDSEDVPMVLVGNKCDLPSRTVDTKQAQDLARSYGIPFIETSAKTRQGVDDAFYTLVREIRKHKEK
Sequence of KRAS WT (P62937 whole entry): as the sequence (P62937 whole entry) above
Sequence of KRAS G12V (P01116 1-169 isoform P01116-2 G12V limits assumed): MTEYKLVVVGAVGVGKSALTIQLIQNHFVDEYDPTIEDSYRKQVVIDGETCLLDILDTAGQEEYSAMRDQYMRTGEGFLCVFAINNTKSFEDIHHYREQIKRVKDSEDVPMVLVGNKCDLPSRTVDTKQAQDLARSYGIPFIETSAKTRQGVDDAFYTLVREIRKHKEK
Sequence of KRAS G12V (P62937 whole entry): as the sequence (P62937 whole entry) above
Sequence of KRAS G13D (P01116 1-169 isoform P01116-2 G13D limits assumed): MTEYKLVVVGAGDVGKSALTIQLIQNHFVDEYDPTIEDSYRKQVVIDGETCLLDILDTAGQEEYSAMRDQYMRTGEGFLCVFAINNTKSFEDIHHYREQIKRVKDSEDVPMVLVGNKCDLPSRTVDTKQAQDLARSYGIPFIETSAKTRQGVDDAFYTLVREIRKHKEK
Sequence of KRAS G13D (P62937 whole entry): as the sequence (P62937 whole entry) above
Sequence of KRAS G13C (P01116 1-169 isoform P01116-2 G13C): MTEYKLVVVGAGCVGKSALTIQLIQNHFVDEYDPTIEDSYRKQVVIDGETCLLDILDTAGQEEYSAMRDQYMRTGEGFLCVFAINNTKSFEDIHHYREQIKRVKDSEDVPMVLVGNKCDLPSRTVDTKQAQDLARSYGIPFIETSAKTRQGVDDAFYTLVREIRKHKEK
Sequence of KRAS G13C (P62937 whole entry): as the sequence (P62937 whole entry) above
Sequence of KRAS G12D (P01116 1-169 isoform P01116-2 G12D limits assumed): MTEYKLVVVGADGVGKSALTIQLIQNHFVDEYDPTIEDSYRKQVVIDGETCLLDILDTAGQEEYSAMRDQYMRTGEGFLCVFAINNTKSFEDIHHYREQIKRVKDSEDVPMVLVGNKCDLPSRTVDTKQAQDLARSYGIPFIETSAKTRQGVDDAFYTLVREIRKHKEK
Sequence of KRAS G12D (P62937 whole entry): as the sequence (P62937 whole entry) above

IC50 (NCI-H358 (K-Ras G12C); [1]) [µM]	IC50 (KRAS G12C; [2])	IC50 (KRAS G12D) [µM]	IC50 (KRAS G12S)	IC50 (KRAS G12V)	IC50 (KRAS G13C; [3])	IC50 (KRAS G13D)	IC50 (KRAS WT)	IC50 (NRAS G12C)	Compound	IC50 (Capan-1 (K-Ras G12V)) [µM]	IC50 (NCI-H358 (K-Ras G12C); [4]) [µM]	IC50 (KRAS G12C; [5]) [µM]	IC50 (KRAS G13C; [6]) [µM]
0.1 to 1	1 to 10 µM and > 10 µM	> 10	1 to 10 µM and > 10 µM	1 to 10 µM and > 10 µM	1 to 10 µM and > 10 µM	1 to 10 µM and > 10 µM	1 to 10 µM and > 10 µM	1 to 10 µM and > 10 µM	CCn1c(-c2cccnc2[C@H](C)OC)c2c3cc(ccc31)-c1csc(n1)C[C@H](NC(=O)[C@H](C(C)C)N(C)C(=O)[C@H]1CCN(C(=O)OC)C1)C(=O)N1CCC[C@H](N1)C(=O)OCC(C)(C)C2 [Example A116]	–	–	–	–
–	–	–	–	0.01 to 0.1 µM	–	–	–	–	CCn1c(-c2cccnc2[C@H](C)OC)c2c3cc(ccc31)-c1cc(O)cc(c1)C[C@H](NC(=O)[C@H](C(C)C)N(C)C(=O)C1(F)CC1)C(=O)N1CCC[C@H](N1)C(=O)OCC(C)(C)C2 [Example A165]	0.01 to 0.1	–	–	–
–	–	–	–	> 10 µM	–	–	–	> 10 µM	CCn1c(-c2cccnc2[C@H](C)OC)c2c3cc(ccc31)-c1csc(n1)C[C@H](NC(=O)[C@H](C(C)C)N1CCC3(CN(C)C3)C1=O)C(=O)N1CCC[C@H](N1)C(=O)OCC(C)(C)C2 [Example A222]	> 10	–	–	–
1 to 10	0.1 to 1 µM	1 to 10	0.1 to 1 µM	0.1 to 1 µM	0.1 to 1 µM	0.1 to 1 µM	0.1 to 1 µM	0.1 to 1 µM	CCn1c(-c2cccnc2[C@H](C)OC)c2c3cc(ccc31)-c1cc(O)cc(c1)C[C@H](NC(=O)C1CCCC1C(F)F)C(=O)N1CCC[C@H](N1)C(=O)OCC(C)(C)C2 (stereo partly shown) [Example A254]	–	–	–	–
–	–	> 10	> 10 µM	> 10 µM	–	> 10 µM	> 10 µM	> 10 µM	C=CC(=O)N1CC[C@H](C(=O)N(C)[C@H](C(=O)N[C@H]2Cc3nc(cs3)-c3ccc4c(c3)c(c(-c3cccnc3[C@H](C)OC)n4CC)CC(C)(C)CN(C)C[C@@H]3CCCN(N3)C2=O)C(C)C)C1 [Example A287]	–	> 1	> 10	> 10
–	–	–	–	–	–	–	–	–	CCn1c(-c2cc(N3CCN(C)CC3)cnc2[C@H](C)OC)c2c3cc(ccc31)-c1csc(n1)C[C@H](NC(=O)[C@H](C(C)C)N(C)C(=O)N1CC(OC)C1)C(=O)N1CCC[C@H](N1)C(=O)OCC(C)(C)C2 [Example A466]	< 0.01	–	–	–
–	–	–	–	–	–	–	–	–	CCn1c(-c2cccnc2[C@H](C)OC)c2c3cc(ccc31)-c1csc(n1)C[C@H](NC(=O)[C@H](C(C)C)N(C)C(=O)N1CC(Cc3cnn(C)c3)C1)C(=O)N1CCC[C@H](N1)C(=O)OCC(C)(C)C2 [Example A500]	< 0.01	–	–	–

Compound	IC50 (NCI-H358 (K-Ras G12C); [1]) [µM]	IC50 (KRAS G12C; [2])	IC50 (KRAS G12D) [µM]	IC50 (KRAS G12S)	IC50 (KRAS G12V)	IC50 (KRAS G13C; [3])	IC50 (KRAS G13D)	IC50 (KRAS WT)	IC50 (NRAS G12C)	IC50 (Capan-1 (K-Ras G12V)) [µM]	IC50 (NCI-H358 (K-Ras G12C); [4]) [µM]	IC50 (KRAS G12C; [5]) [µM]	IC50 (KRAS G13C; [6]) [µM]
C=CC(=O)N1C[C@@H](C(=O)N(C)[C@H](C(=O)N[C@H]2Cc3cccc(c3)-c3ccc4c(c3)c(c(-c3cccnc3[C@H](C)OC)n4CC)CC(C)(C)COC(=O)[C@@H]3CCCN(N3)C2=O)C(C)C)[C@@H](C(F)(F)F)C1 [Example A401]	–	–	> 10	1 to 10 µM	1 to 10 µM	–	1 to 10 µM	1 to 10 µM	1 to 10 µM	–	0.1 to 1	1 to 10	0.1 to 1
